From US10543215B2, “Combination therapy of cardiac myosin activator and sinus node if current inhibitor” (AMGEN INC., priority 2015, dated 2020)

Test system: conscious telemetered beagle dogs
Test: Left-ventricular hemodynamic, mechanical and timing indices by radio-telemetry before and during IV OM or vehicle, on repeated oral IVA or placebo
Assay type: in vivo, beagle dog
Experimental: Healthy male beagle dogs (n=7) instrumented with radio-telemetry units providing continuous single-lead electrocardiogram (ECG), as well as systemic (arterial, AoP) and left-ventricular (LVP) pressure signals were used for this study. Following sling acclimation, the animals were assigned to receive repeated oral (via gavage) treatments with either Ivabradine (IVA, 5 mg/kg bid) or a volume-matched placebo-control (sterile water, CTRL) for 5 days, administered at a dose volume of 10 mL/kg, in a cross over design.
The animals were sling-restrained and were subjected to acute intravenous administration of either sterile water (VEH, on Days 4 and 11 of dosing) or Omecamtiv Mecarbil (OM, on Days 5 and 12 of dosing). OM treatments were performed over a 3-hour infusion duration, following a dose-escalation design targeting plasma concentrations of 600 and 1000 ng/mL (each over 90 minutes, with a 30 minute loading infusion followed by a 60 minute maintenance infusion) for a cumulative dose of 5.293 mg/kg (as shown in Table A below). The IV vehicle treatments were time- and volume-matched.
Telemetered data were collected continuously for at least 90 minutes prior to and during dosing, as well as for at least 20 hours post-dose. The LVP and ECG signals were digitized at a sampling rate of at least 1000 Hz. The data were analyzed for heart rate (HR) and left-ventricular hemodynamic/mechanical indices that were obtained from the pressure waveform, including mean systolic (MSP) and end-diastolic (filling, EDP) pressures, the peak rates of pressure change during systole/diastole (dP/dtmax/min), as well as the time-constant of relaxation (tau) and a contractility index (CI: dP/dtmax normalized by the pressure at dP/dtmax). The data were also analyzed for systolic and diastolic intervals, including the estimated durations of the systolic ejection (SET), contraction (CT), active relaxation (RT) and filling intervals (FT), as well as the systolic-to-diastolic interval ratio (S/D: SET/RT+FT), which were derived from the left-ventricular pressure waveform.
The left-ventricular indices were evaluated only in the sling-restrained animals before and during IV treatment with OM or vehicle. Cardiovascular responses at each dose level were monitored for up to 90 minutes, i.e., over 3 hours total (during IV dosing of VEH and OM on Days 4, 5, 11, and 12 in the dose administration paradigm). Overall, in-sling cardiovascular data are reported at the following pre-determined/targeted time points: prior to dosing (i.e., at baseline, PRE) and approximately at the end of each infusion period (i.e., up to 4 time points during dosing, D1 to D4). Signals were analyzed continuously in 5-minute epochs, with pre-administration (i.e., PRE) values representing the overall mean over at least 5-epochs (i.e., 25 minutes) taken immediately prior to the onset of dosing, while during-dosing values reflect 5-minute averages (i.e., 1 epoch) taken prior to the (estimated) termination of each infusion. Data are presented as both means with standard deviations in summarizing tables/figure; beat-to-beat plots against heart rate are part of the study file.

[1] = D1, end of 30-min loading infusion, target OM 600 ng/mL
[2] = D2, end of 60-min maintenance infusion, target OM 600 ng/mL
[3] = D3, end of 30-min loading infusion, target OM 1000 ng/mL
[4] = D4, end of 60-min maintenance infusion, target OM 1000 ng/mL
[5] = PRE, before IV dosing (baseline)
[6] = baseline after repeated oral IVA 5 mg/kg bid, mean pre-dosing averages across study days
[7] = baseline after repeated oral IVA 5 mg/kg bid, vs. placebo-control

COc1cc2c(cc1OC)CC(=O)N(CCCN(C)C[C@H]1Cc3cc(OC)c(OC)cc31)CC2 [IVA]
CT % vs. PRE [1]: 4%
CT (contraction time) [1]: 63.8 ms
EDP % vs. PRE [1]: −10%
EDP (left-ventricular end-diastolic pressure) [1]: 14.4 mmHg
FT % vs. PRE [1]: 11%
FT (filling time) [1]: 586 ms
HR % vs. PRE [1]: −9%
HR (heart rate) [1]: 76 bpm
MSP % vs. PRE [1]: 0%
MSP (left-ventricular mean systolic pressure) [1]: 138 mmHg
RT % vs. PRE [1]: 1%
RT (relaxation time) [1]: 88 ms
S/D % vs. PRE [1]: −4%
S/D (systolic to diastolic ratio, SET/RT + FT) [1]: 0.2
SET % vs. PRE [1]: 4%
SET (systolic ejection time) [1]: 161 ms
Tau % vs. PRE [1]: 3 ± 2%
Tau (left-ventricular relaxation time-constant) [1]: 28.7 ± 1.7 ms
Vmax % vs. PRE [1]: 0 ± 1%
Vmax (estimated maximal velocity of myocardial contractile-element shortening) [1]: 36.9 ± 1.3 s⁻¹
dP/dtmax % vs. PRE [1]: −2%
dP/dtmax (peak rate of LV pressure change during systole) [1]: 2,606 mmHg/s
dP/dtmin % vs. PRE [1]: −2%
dP/dtmin (peak rate of LV pressure change during diastole) [1]: −2,365 mmHg/s
CT % vs. PRE [2]: 9%
CT (contraction time) [2]: 67.2 ms
EDP % vs. PRE [2]: 0%
EDP (left-ventricular end-diastolic pressure) [2]: 15.3 mmHg
FT % vs. PRE [2]: 8%
FT (filling time) [2]: 571 ms
HR % vs. PRE [2]: −9%
HR (heart rate) [2]: 76 bpm
MSP % vs. PRE [2]: 5%
MSP (left-ventricular mean systolic pressure) [2]: 145 mmHg
RT % vs. PRE [2]: 4%
RT (relaxation time) [2]: 90 ms
S/D % vs. PRE [2]: 0%
S/D (systolic to diastolic ratio, SET/RT + FT) [2]: 0.25
SET % vs. PRE [2]: 6%
SET (systolic ejection time) [2]: 163 ms
Tau % vs. PRE [2]: 6 ± 2%
Tau (left-ventricular relaxation time-constant) [2]: 29.3 ± 1.0 ms
Vmax % vs. PRE [2]: −1 ± 1%
Vmax (estimated maximal velocity of myocardial contractile-element shortening) [2]: 36.7 ± 0.8 s⁻¹
dP/dtmax % vs. PRE [2]: 2%
dP/dtmax (peak rate of LV pressure change during systole) [2]: 2,704 mmHg/s
dP/dtmin % vs. PRE [2]: 4%
dP/dtmin (peak rate of LV pressure change during diastole) [2]: −2,492 mmHg/s
CT % vs. PRE [3]: 6%
CT (contraction time) [3]: 64.9 ms
EDP % vs. PRE [3]: −4%
EDP (left-ventricular end-diastolic pressure) [3]: 14.5 mmHg
FT % vs. PRE [3]: 24%
FT (filling time) [3]: 651 ms
HR % vs. PRE [3]: −17%
HR (heart rate) [3]: 69 bpm
MSP % vs. PRE [3]: 3%
MSP (left-ventricular mean systolic pressure) [3]: 143 mmHg
RT % vs. PRE [3]: 6%
RT (relaxation time) [3]: 92 ms
S/D % vs. PRE [3]: −8%
S/D (systolic to diastolic ratio, SET/RT + FT) [3]: 0.23
SET % vs. PRE [3]: 8%
SET (systolic ejection time) [3]: 167 ms
Tau % vs. PRE [3]: 5 ± 3%
Tau (left-ventricular relaxation time-constant) [3]: 29.2 ± 1.0 ms
Vmax % vs. PRE [3]: 1 ± 2%
Vmax (estimated maximal velocity of myocardial contractile-element shortening) [3]: 37.2 ± 0.7 s⁻¹
dP/dtmax % vs. PRE [3]: 0%
dP/dtmax (peak rate of LV pressure change during systole) [3]: 2,662 mmHg/s
dP/dtmin % vs. PRE [3]: 1%
dP/dtmin (peak rate of LV pressure change during diastole) [3]: −2,425 mmHg/s
CT % vs. PRE [4]: 11%
CT (contraction time) [4]: 67.9 ms
EDP % vs. PRE [4]: −9%
EDP (left-ventricular end-diastolic pressure) [4]: 14.2 mmHg
FT % vs. PRE [4]: 9%
FT (filling time) [4]: 577 ms
HR % vs. PRE [4]: −12%
HR (heart rate) [4]: 74 bpm
MSP % vs. PRE [4]: 4%
MSP (left-ventricular mean systolic pressure) [4]: 143 mmHg
RT % vs. PRE [4]: 5%
RT (relaxation time) [4]: 91 ms
S/D % vs. PRE [4]: 0%
S/D (systolic to diastolic ratio, SET/RT + FT) [4]: 0.25
SET % vs. PRE [4]: 7%
SET (systolic ejection time) [4]: 165 ms
Tau % vs. PRE [4]: 3 ± 2%
Tau (left-ventricular relaxation time-constant) [4]: 28.8 ± 1.5 ms
Vmax % vs. PRE [4]: 1 ± 1%
Vmax (estimated maximal velocity of myocardial contractile-element shortening) [4]: 37.3 ± 1.0 s⁻¹
dP/dtmax % vs. PRE [4]: 2%
dP/dtmax (peak rate of LV pressure change during systole) [4]: 2,702 mmHg/s
dP/dtmin % vs. PRE [4]: 2%
dP/dtmin (peak rate of LV pressure change during diastole) [4]: −2,457 mmHg/s
CT (contraction time) [5]: 61.4 ± 0.6 ms
EDP (left-ventricular end-diastolic pressure) [5]: 15.7 mmHg
FT (filling time) [5]: 535 ± 46 ms
HR (heart rate) [5]: 85 bpm
MSP (left-ventricular mean systolic pressure) [5]: 138 mmHg
RT (relaxation time) [5]: 87 ± 1 ms
S/D (systolic to diastolic ratio, SET/RT + FT) [5]: 0.26
SET (systolic ejection time) [5]: 155 ± 2 ms
Tau (left-ventricular relaxation time-constant) [5]: 27.9 ± 1.4 ms
Vmax (estimated maximal velocity of myocardial contractile-element shortening) [5]: 37.1 ± 1.1 s⁻¹
dP/dtmax (peak rate of LV pressure change during systole) [5]: 2,661 mmHg/s
dP/dtmin (peak rate of LV pressure change during diastole) [5]: −2,407 mmHg/s
CT [6]: 61 ± 1 ms
FT [6]: 577 ± 49 ms
HR [6]: 82 ± 5 bpm
LV-EDP [6]: 16 ± 2 mmHg
LV-MSP [6]: 137 ± 3 mmHg
LV-Tau [6]: 28.5 ± 1.4 ms
LV-Vmax [6]: 37.0 ± 1.0 s⁻¹
LV-dP/dtmax [6]: 2,644 ± 79 mmHg/s
LV-dP/dtmin [6]: −2,367 ± 91 mmHg/s
RT [6]: 88 ± 1 ms
S/D [6]: 0.24 ± 0.01
SET [6]: 157 ± 2 ms
CT change vs. CTRL [7]: (−9 ± 1) %
LV-MSP change vs. CTRL [7]: (4 ± 2) %
LV-Tau change vs. CTRL [7]: (−3 ± 3) %
LV-Vmax change vs. CTRL [7]: (5 ± 3) %
LV-dP/dtmin change vs. CTRL [7]: (8 ± 3) %
RT change vs. CTRL [7]: (−2 ± 2) %
SET change vs. CTRL [7]: (4 ± 2) %
